In the supplement of paper PMC10307832:

Legend:
Test in all cases: relative viability (nuclei count vs DMSO), 5 days (fraction); higher = more cells survive
NCI-H1975 = test system: NCI-H1975
In short: (§1)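 Lung cancer cell lines in 1536-well plates were dosed by pin tool the day after seeding, either with one drug alone or with a fixed anchor-drug dose plus five library-drug doses (not always all listed) in √10 steps. After 5 days, cells were fixed and their nuclei stained in one step (final 0.05% Triton X-100, 1% formaldehyde, 1 ug/ml Hoechst), then counted on 4× images. Relative viability is the nuclei count in treated wells divided by that in vehicle wells. Values are medians of duplicate plates.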

NCI-H1563 = test system: NCI-H1563
In short: as §1

NCI-H596 = test system: NCI-H596
In short: as §1

LOU-NH91 = test system: LOU-NH91
In short: as §1

EMC-BAC-2 = test system: EMC-BAC-2
In short: as §1

PC-3 [JPC-3] = test system: PC-3 [JPC-3]
In short: as §1

LK-2 = test system: LK-2
In short: as §1

A-427 = test system: A-427
In short: as §1

SW 900 = test system: SW 900
In short: as §1

NCI-H1755 = test system: NCI-H1755
In short: as §1

NCI-H23 = test system: NCI-H23
In short: as §1

NCI-H520 = test system: NCI-H520
In short: as §1

NCI-H441 = test system: NCI-H441
In short: as §1

EKVX = test system: EKVX
In short: as §1

NCI-H1666 = test system: NCI-H1666
In short: as §1

SK-MES-1 = test system: SK-MES-1
In short: as §1

COR-L 105 = test system: COR-L 105
In short: as §1

NCI-H2170 = test system: NCI-H2170
In short: as §1

ChaGo-K-1 = test system: ChaGo-K-1
In short: as §1

NCI-H1734 = test system: NCI-H1734
In short: as §1

HCC-366 = test system: HCC-366
In short: as §1

H3255 = test system: H3255
In short: as §1

## COc1cc2nccc(Oc3ccc(NC(=O)Nc4cc(C)on4)c(Cl)c3)c2cc1OC [Tivozanib] + Cc1nc(Nc2ncc(C(=O)Nc3c(C)cccc3Cl)s2)cc(N2CCN(CCO)CC2)n1 [Dasatinib] (partner 0.075 µM)
NCI-H1975; first compound 0.005 µM
  relative viability: 0.381
NCI-H1975; first compound 0.01581 µM
  relative viability: 0.367
NCI-H1975; first compound 0.05 µM
  relative viability: 0.417
NCI-H1975; first compound 0.1581 µM
  relative viability: 0.278
NCI-H1975; first compound 0.5 µM
  relative viability: 0.315
NCI-H1563; first compound 0.005 µM
  relative viability: 0.455
NCI-H1563; first compound 0.01581 µM
  relative viability: 0.463
NCI-H1563; first compound 0.05 µM
  relative viability: 0.466
NCI-H1563; first compound 0.1581 µM
  relative viability: 0.441
NCI-H1563; first compound 0.5 µM
  relative viability: 0.488
NCI-H596; first compound 0.005 µM
  relative viability: 0.55
NCI-H596; first compound 0.01581 µM
  relative viability: 0.591
NCI-H596; first compound 0.05 µM
  relative viability: 0.575
NCI-H596; first compound 0.5 µM
  relative viability: 0.522
LOU-NH91; first compound 0.005 µM
  relative viability: 0.514
LOU-NH91; first compound 0.01581 µM
  relative viability: 0.569
LOU-NH91; first compound 0.05 µM
  relative viability: 0.595
LOU-NH91; first compound 0.1581 µM
  relative viability: 0.518
LOU-NH91; first compound 0.5 µM
  relative viability: 0.525
EMC-BAC-2; first compound 0.005 µM
  relative viability: 0.313
EMC-BAC-2; first compound 0.01581 µM
  relative viability: 0.314
EMC-BAC-2; first compound 0.05 µM
  relative viability: 0.313
EMC-BAC-2; first compound 0.1581 µM
  relative viability: 0.273
EMC-BAC-2; first compound 0.5 µM
  relative viability: 0.237
PC-3 [JPC-3]; first compound 0.005 µM
  relative viability: 0.934
PC-3 [JPC-3]; first compound 0.01581 µM
  relative viability: 1
PC-3 [JPC-3]; first compound 0.05 µM
  relative viability: 0.983
PC-3 [JPC-3]; first compound 0.1581 µM
  relative viability: 0.812
PC-3 [JPC-3]; first compound 0.5 µM
  relative viability: 0.951
LK-2; first compound 0.005 µM
  relative viability: 0.226
LK-2; first compound 0.01581 µM
  relative viability: 0.29
LK-2; first compound 0.05 µM
  relative viability: 0.289
LK-2; first compound 0.1581 µM
  relative viability: 0.214
LK-2; first compound 0.5 µM
  relative viability: 0.23
A-427; first compound 0.005 µM
  relative viability: 0.645
A-427; first compound 0.01581 µM
  relative viability: 0.669
A-427; first compound 0.05 µM
  relative viability: 0.699
A-427; first compound 0.1581 µM
  relative viability: 0.538
A-427; first compound 0.5 µM
  relative viability: 0.686
SW 900; first compound 0.005 µM
  relative viability: 0.566
SW 900; first compound 0.01581 µM
  relative viability: 0.53
SW 900; first compound 0.05 µM
  relative viability: 0.67
SW 900; first compound 0.1581 µM
  relative viability: 0.426
SW 900; first compound 0.5 µM
  relative viability: 0.45
NCI-H1755; first compound 0.005 µM
  relative viability: 0.356
NCI-H1755; first compound 0.01581 µM
  relative viability: 0.415
NCI-H1755; first compound 0.05 µM
  relative viability: 0.432
NCI-H1755; first compound 0.1581 µM
  relative viability: 0.315
NCI-H1755; first compound 0.5 µM
  relative viability: 0.383
NCI-H23; first compound 0.005 µM
  relative viability: 0.693
NCI-H23; first compound 0.01581 µM
  relative viability: 0.707
NCI-H23; first compound 0.05 µM
  relative viability: 0.769
NCI-H23; first compound 0.1581 µM
  relative viability: 0.389
NCI-H23; first compound 0.5 µM
  relative viability: 0.753
NCI-H520; first compound 0.005 µM
  relative viability: 0.183
NCI-H520; first compound 0.01581 µM
  relative viability: 0.201
NCI-H520; first compound 0.05 µM
  relative viability: 0.232
NCI-H520; first compound 0.1581 µM
  relative viability: 0.175
NCI-H520; first compound 0.5 µM
  relative viability: 0.182
NCI-H441; first compound 0.005 µM
  relative viability: 0.642
NCI-H441; first compound 0.01581 µM
  relative viability: 0.584
NCI-H441; first compound 0.05 µM
  relative viability: 0.498
NCI-H441; first compound 0.1581 µM
  relative viability: 0.625
NCI-H441; first compound 0.5 µM
  relative viability: 0.394
EKVX; first compound 0.005 µM
  relative viability: 0.571
EKVX; first compound 0.01581 µM
  relative viability: 0.605
EKVX; first compound 0.05 µM
  relative viability: 0.483
EKVX; first compound 0.5 µM
  relative viability: 0.474
NCI-H1666; first compound 0.005 µM
  relative viability: 0.785
NCI-H1666; first compound 0.01581 µM
  relative viability: 0.831
NCI-H1666; first compound 0.05 µM
  relative viability: 0.801
NCI-H1666; first compound 0.1581 µM
  relative viability: 0.819
NCI-H1666; first compound 0.5 µM
  relative viability: 0.825
SK-MES-1; first compound 0.005 µM
  relative viability: 0.288
SK-MES-1; first compound 0.01581 µM
  relative viability: 0.404
SK-MES-1; first compound 0.05 µM
  relative viability: 0.442
SK-MES-1; first compound 0.1581 µM
  relative viability: 0.332
SK-MES-1; first compound 0.5 µM
  relative viability: 0.416
COR-L 105; first compound 0.005 µM
  relative viability: 0.34
COR-L 105; first compound 0.01581 µM
  relative viability: 0.361
COR-L 105; first compound 0.05 µM
  relative viability: 0.467
COR-L 105; first compound 0.1581 µM
  relative viability: 0.269
COR-L 105; first compound 0.5 µM
  relative viability: 0.354
NCI-H2170; first compound 0.005 µM
  relative viability: 0.599
NCI-H2170; first compound 0.01581 µM
  relative viability: 0.494
NCI-H2170; first compound 0.05 µM
  relative viability: 0.616
NCI-H2170; first compound 0.1581 µM
  relative viability: 0.348
NCI-H2170; first compound 0.5 µM
  relative viability: 0.569
ChaGo-K-1; first compound 0.005 µM
  relative viability: 0.543
ChaGo-K-1; first compound 0.01581 µM
  relative viability: 0.61
ChaGo-K-1; first compound 0.05 µM
  relative viability: 0.626
ChaGo-K-1; first compound 0.1581 µM
  relative viability: 0.602
ChaGo-K-1; first compound 0.5 µM
  relative viability: 0.581
NCI-H1734; first compound 0.005 µM
  relative viability: 0.424
NCI-H1734; first compound 0.01581 µM
  relative viability: 0.536
NCI-H1734; first compound 0.05 µM
  relative viability: 0.51
NCI-H1734; first compound 0.1581 µM
  relative viability: 0.366
NCI-H1734; first compound 0.5 µM
  relative viability: 0.425
HCC-366; first compound 0.005 µM
  relative viability: 0.582
HCC-366; first compound 0.01581 µM
  relative viability: 0.601
HCC-366; first compound 0.05 µM
  relative viability: 0.671
HCC-366; first compound 0.1581 µM
  relative viability: 0.727
HCC-366; first compound 0.5 µM
  relative viability: 0.587
H3255; first compound 0.005 µM
  relative viability: 0.316
H3255; first compound 0.01581 µM
  relative viability: 0.432
H3255; first compound 0.05 µM
  relative viability: 0.347
H3255; first compound 0.1581 µM
  relative viability: 0.345
H3255; first compound 0.5 µM
  relative viability: 0.326
